This is an account of results in US9161900B2, “Cosmetic composition for inhibiting hair loss and enhanced hair growth” (AMOREPACIFIC CORPORATION, priority 2011, dated 2015).

In general, viability refers to a read-out of living cells in per cent, often relative to untreated cells.

SMILES strings stand for the structures.

The test deals with LNCaP cells having the androgen receptor. The test is described as follows: Androgen receptor inhibition assay (LNCaP cell viability, WST-1). The settings on record: Homo sapiens, 48 h, read-out: Cell viability (%). As for the experimental part: The human prostate cancer cell line LNCaP cells were acquired from the American Type Culture Collection (Manassas, Va., USA) and cultured for 24 hours in RPMI 1640 medium containing 10% fetal bovine serum (FBS) and 2 mM 1-glutamine in an incubator maintained at 5% CO2 and 37° C.
Cell viability of the cultured cells was measured using the WST-1 reagent.
(In general: Tetrazolium dyes change colour on reduction, which living cells bring about.)

On to `C[C@]12CCC(=O)C[C@@H]1CC[C@@H]1[C@@H]2CC[C@]2(C)[C@@H](O)CC[C@@H]12` [DHT, dihydrotestosterone], for which the viability at 0.001 µM was determined as 119%.
